Experimental data as given in patent US9481659B2, “Selective heterocyclic sphingosine 1 phosphate receptor modulators” (Celgene International II SÀRL, priority 2011, dated 2016).
Counter-ions that a name gives are not always drawn.

Molecular target: S1P1/EDG1 (Homo sapiens, UniProt P21453)
Test: S1P1 CRE-bla CHOK1 reporter assay, inhibition of Forskolin induced cAMP
Format: cell-based
Conditions: agonist activity range; S1P1 CRE-bla CHOK1 cells, 2 μM Forskolin; read-out: S1P1 ACTIVITY
Method: Generation of S1P1-Mediated Inhibition of cAMP Reporter Assay
A mammalian expression plasmid containing S1P1/EDG1 cloned into pcDNA3.1 was purchased from Missouri S&T cDNA Resource Centre. […] S1P1/pcDNA3.1 was transfected into the CRE-bla CHO K1 (Invitrogen) cell line, and stable single cell clones were selected using standard techniques.
S1P1 CRE-Bla CHOK1 Reporter Assay—Characterization of S1P1 Agonists
Cells were seeded into 384-well black wall/clear bottom plates at 10^4 cells/well/19.5 μl assay media (DMEM-phenol free, 0.5% charcoal/dextran stripped serum, 2 mM glutamine, 0.1 mM NEAA, 1 mM Na-Pyruvate, 25 mM Hepes) and incubated for 18 hrs at 37° C. in 5% CO2. Dose response curves (10-point) were generated in 10 mM Hepes, 0.1% Pluronic F127, in the presence of Forskolin. Cells were treated with 0.5 μl compound in the presence of 2 μM Forskolin for 4 hrs at 37° C. The FRET-based β-lactamase fluorescent substrate (LiveBLAzer™-FRET B/G Loading Kit CC4-AM; Invitrogen) was prepared according to manufacturer's directions, and incubated with cells for 2 hrs at room temperature.

S1P1/EDG1, sequence (P21453 whole entry): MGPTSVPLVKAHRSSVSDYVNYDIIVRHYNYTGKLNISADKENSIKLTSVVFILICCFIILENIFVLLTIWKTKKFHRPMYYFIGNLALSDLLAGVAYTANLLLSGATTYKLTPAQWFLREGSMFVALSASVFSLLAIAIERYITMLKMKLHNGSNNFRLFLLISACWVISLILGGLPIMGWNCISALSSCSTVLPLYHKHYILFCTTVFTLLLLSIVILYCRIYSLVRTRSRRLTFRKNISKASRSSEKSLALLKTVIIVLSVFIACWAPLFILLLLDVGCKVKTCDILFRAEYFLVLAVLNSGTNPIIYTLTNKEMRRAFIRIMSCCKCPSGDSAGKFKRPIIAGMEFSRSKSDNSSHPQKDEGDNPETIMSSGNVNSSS

SMILES | EC50
CC(C)Oc1ccc(-c2nnc(-c3cccc4c3CCC4NS(=O)(=O)CCN3CC[C@@H](O)C3)s2)cc1C#N (stereo in doubt) [Compound 37, N—((S)-4-(5-(3-cyano-4-isopropoxyphenyl)-1,3,4-thiadiazol-2-yl)-2,3-dihydro-1H-inden-1-yl)-2-((R)-3-hydroxypyrrolidin-1-yl)ethanesulfonamide] | 0.5 to 5 nM
CC(C)Oc1ccc(-c2nnc(-c3cccc4c3CCC4NS(=O)(=O)CCN3CC[C@@H](O)C3)s2)cc1C#N (stereo in doubt) [Compound 38, N—((R)-4-(5-(3-cyano-4-isopropoxyphenyl)-1,3,4-thiadiazol-2-yl)-2,3-dihydro-1H-inden-1-yl)-2-((R)-3-hydroxypyrrolidin-1-yl)ethanesulfonamide] | 0.5 to 5 nM
CC(C)Oc1ccc(-c2nnc(-c3cccc4c3CC[C@H]4O)s2)cc1C#N [Compound 2, (R)-5-(5-(1-hydroxy-2,3-dihydro-1H-inden-4-yl)-1,3,4-thiadiazol-2-yl)-2-isopropoxybenzonitrile] | 0.05 to 0.5 nM
CC(C)Oc1ccc(-c2nnc(-c3cccc4c3CC[C@H]4N)s2)cc1C#N [Compound 5, (R)-5-(5-(1-amino-2,3-dihydro-1H-inden-4-yl)-1,3,4-thiadiazol-2-yl)-2isopropoxybenzonitrile hydrochloride] | 0.5 to 5 nM
CC(C)Oc1ccc(-c2nnc(-c3cccc4c3CC[C@H]4NC(=O)CN)s2)cc1C#N [Compound 9] | 0.05 to 0.5 nM
CC(C)Oc1ccc(-c2nnc(-c3cccc4c3CC[C@H]4NCCO)s2)cc1C#N [Compound 17, (R)-5-(5-(1-((2-hydroxyethyl)amino)-2,3-dihydro-1H-inden-4-yl)-1,3,4-thiadiazol-2-yl)-2-isopropoxybenzonitrile] | 0.05 to 0.5 nM
COCCN[C@@H]1CCc2c(-c3nnc(-c4ccc(OC(C)C)c(C#N)c4)s3)cccc21 [Compound 19] | 0.5 to 5 nM
CC(C)Oc1ccc(-c2nnc(-c3cccc4c3CC[C@H]4NCC(=O)N(C)C)s2)cc1C#N [Compound 22, (R)-2-((4-(5-(3-cyano-4-isopropoxyphenyl)-1,3,4-thiadiazol-2-yl)-2,3-dihydro-1H-inden-1-yl)amino)-N,N-dimethylacetamide hydrochloride] | 0.05 to 0.5 nM
CC(C)Oc1ccc(-c2nnc(-c3cccc4c3CC[C@H]4NCC(=O)N3CCOCC3)s2)cc1C#N [Compound 25] | 0.05 to 0.5 nM
CC(C)Oc1ccc(-c2nnc(-c3cccc4c3CC[C@H]4NCC(=O)O)s2)cc1C#N [Compound 27, (R)-2-((4-(5-(3-cyano-4-isopropoxyphenyl)-1,3,4-thiadiazol-2-yl)-2,3-dihydro-1H-inden-1-yl)amino)acetic acid] | 0.05 to 0.5 nM
CC(C)Oc1ccc(-c2nnc(-c3cccc4c3CC[C@H]4NCc3ncc[nH]3)s2)cc1C#N [Compound 29, (R)-5-(5-(1-(((1H-imidazol-2-yl)methyl)amino)-2,3-dihydro-1H-inden-4-yl)-1,3,4-thiadiazol-2-yl)-2-isopropoxybenzonitrile] | 0.05 to 0.5 nM
CC(C)Oc1ccc(-c2nnc(-c3cccc4c3CC[C@H]4NCCS(C)(=O)=O)s2)cc1C#N [Compound 32, (R)-2-isopropoxy-5-(5-(1-((2-(methylsulfonyl)ethyl)amino)-2,3-dihydro-1H-inden-4-yl)-1,3,4-thiadiazol-2-yl)benzonitrile] | < 0.05 nM
CC(C)Oc1ccc(-c2nnc(-c3cccc4c3CC[C@H]4NS(C)(=O)=O)s2)cc1C#N [Compound 34, (R)—N-(4-(5-(3-cyano-4-isopropoxyphenyl)-1,3,4-thiadiazol-2-yl)-2,3-dihydro-1H-inden-1-yl)methanesulfonamide] | 0.05 to 0.5 nM
CC(C)Oc1ccc(-c2nnc(-c3cccc4c3CC[C@H]4NCC(=O)N3CCCC3)s2)cc1C#N [Compound 39] | 0.05 to 0.5 nM
CC(C)Oc1ccc(-c2nnc(-c3cccc4c3CC[C@H]4NS(=O)(=O)CC(=O)O)s2)cc1C#N [Compound 41, (R)-2-(N-(4-(5-(3-cyano-4-isopropoxyphenyl)-1,3,4-thiadiazol-2-yl)-2,3-dihydro-1H-inden-1-yl)sulfamoyl)acetic acid] | < 0.05 nM
CC(C)Oc1ccc(-c2nnc(-c3cccc4c3CC[C@H]4NS(N)(=O)=O)s2)cc1C#N [Compound 48, (R)—N-(4-(5-(3-cyano-4-isopropoxyphenyl)-1,3,4-thiadiazol-2-yl)-2,3-dihydro-1H-inden-1-yl) sulfamide] | < 0.05 nM
CC(C)Oc1ccc(-c2nnc(-c3cccc4c3CC[C@H]4NC(=O)CN(C)C)s2)cc1C#N [Compound 49] | 0.5 to 5 nM
CC(C)Oc1ccc(-c2nnc(-c3cccc4c3CC[C@H]4NC(=O)N3CC(C(=O)O)C3)s2)cc1C#N [Compound 50] | 0.05 to 0.5 nM
CC(C)Oc1ccc(-c2nnc(-c3cccc4c3CC[C@H]4NC(=O)N3CC[C@H](O)C3)s2)cc1C#N [Compound 54] | 0.05 to 0.5 nM
CC(C)Oc1ccc(-c2nnc(-c3cccc4c3CC[C@H]4NC(=O)N3CCC[C@H](O)C3)s2)cc1C#N [Compound 61] | 0.05 to 0.5 nM
CC(C)Oc1ccc(-c2nnc(-c3cccc4c3CC[C@H]4NC(=O)N3CCC(O)CC3)s2)cc1C#N [Compound 62] | 0.5 to 5 nM
CC(C)Oc1ccc(-c2nnc(-c3cccc4c3CC[C@H]4NC(=O)N3CC(O)C3)s2)cc1C#N [Compound 65] | 0.05 to 0.5 nM
COC(=O)N[C@@H]1CCc2c(-c3nnc(-c4ccc(OC(C)C)c(C#N)c4)s3)cccc21 [Compound 68] | 0.05 to 0.5 nM

SMILES | EC50
CC(C)Oc1ccc(-c2ncc(-c3cccc4c3CC[C@H]4O)s2)cc1C#N [Compound 69, (R)-5-(5-(1-hydroxy-2,3-dihydro-1H-inden-4-yl)thiazol-2-yl)-2-isopropoxy benzonitrile] | 0.05 to 0.5 nM
CC(C)Oc1ccc(-c2ncc(-c3cccc4c3CC[C@H]4NC(=O)CO)s2)cc1C#N [Compound 74] | 0.05 to 0.5 nM
COCC(=O)N[C@@H]1CCc2c(-c3cnc(-c4ccc(OC(C)C)c(C#N)c4)s3)cccc21 [Compound 75] | 0.05 to 0.5 nM
CC(C)Oc1ccc(-c2ncc(-c3cccc4c3CC[C@H]4NC(=O)CN)s2)cc1C#N [Compound 77] | 0.05 to 0.5 nM
CC(C)Oc1ccc(-c2ncc(-c3cccc4c3CC[C@H]4NC(=O)[C@@H](N)CO)s2)cc1C#N [Compound 79] | 0.05 to 0.5 nM
CC(C)Oc1ccc(-c2ncc(-c3cccc4c3CC[C@H]4NC(=O)[C@H](N)CO)s2)cc1C#N [Compound 80] | 0.05 to 0.5 nM
CC(C)Oc1ccc(-c2ncc(-c3cccc4c3CC[C@H]4NC(=O)CN(C)C)s2)cc1C#N [Compound 81] | 0.5 to 5 nM
CC(C)Oc1ccc(-c2ncc(-c3cccc4c3CC[C@H]4NC(=O)Cc3ccccc3)s2)cc1C#N [Compound 83] | > 5 nM
CC(C)Oc1ccc(-c2ncc(-c3cccc4c3CC[C@H]4NC(=O)CN3CCCC3)s2)cc1C#N [Compound 85] | > 5 nM
CC(=O)N[C@@H]1CCc2c(-c3cnc(-c4ccc(OC(C)C)c(C#N)c4)s3)cccc21 [Compound 87] | 0.05 to 0.5 nM
COC(=O)N[C@@H]1CCc2c(-c3cnc(-c4ccc(OC(C)C)c(C#N)c4)s3)cccc21 [Compound 89] | 0.5 to 5 nM
CC(C)Oc1ccc(-c2ncc(-c3cccc4c3CC[C@H]4NCCO)s2)cc1C#N [Compound 91, (R)-5-(5-(1-((2-hydroxyethyl)amino)-2,3-dihydro-1H-inden-4-yl)thiazol-2-yl)-2-isopropoxybenzonitrile] | 0.5 to 5 nM
COCCN[C@@H]1CCc2c(-c3cnc(-c4ccc(OC(C)C)c(C#N)c4)s3)cccc21 [Compound 93] | 0.5 to 5 nM
CC(C)Oc1ccc(-c2ncc(-c3cccc4c3CC[C@H]4NCC(=O)O)s2)cc1C#N [Compound 96, (R)-2-((4-(2-(3-cyano-4-isopropoxyphenyl)thiazol-5-yl)-2,3-dihydro-1H-inden-1-yl)amino)acetic acid] | 0.05 to 0.5 nM
CC(C)Oc1ccc(-c2ncc(-c3cccc4c3CC[C@H]4NCC(=O)N3CCCC3)s2)cc1C#N [Compound 100] | 0.05 to 0.5 nM
CC(C)Oc1ccc(-c2ncc(-c3cccc4c3CC[C@H]4NCC(=O)N3CC[C@H](O)C3)s2)cc1C#N [Compound 102, 5-(5-((R)-1-((2-((S)-3-hydroxypyrrolidin-1-yl)-2-oxoethyl)amino)-2,3-dihydro-1H-inden-4-yl)thiazol-2-yl)-2-isopropoxybenzonitrile hydrochloride] | 0.05 to 0.5 nM
CC(C)Oc1ccc(-c2ncc(-c3cccc4c3CC[C@H]4NCC(=O)N3CC[C@@H](O)C3)s2)cc1C#N [Compound 103] | 0.05 to 0.5 nM
CC(C)Oc1ccc(-c2ncc(-c3cccc4c3CC[C@@H]4NCC(=O)N3CC[C@@H](O)C3)s2)cc1C#N [Compound 105] | > 5 nM
CC(C)Oc1ccc(-c2ncc(-c3cccc4c3CC[C@H]4NCC(=O)N3CCNCC3)s2)cc1C#N [Compound 107] | 0.5 to 5 nM
CC(C)Oc1ccc(-c2ncc(-c3cccc4c3CC[C@H]4NCc3ncc[nH]3)s2)cc1C#N [Compound 109, (R)-5-(5-(1-(((1H-imidazol-2-yl)methyl)amino)-2,3-dihydro-1H-inden-4-yl)thiazol-2-yl)-2-isopropoxybenzonitrile] | 0.5 to 5 nM
CC(C)Oc1ccc(-c2ncc(-c3cccc4c3CC[C@H]4NS(C)(=O)=O)s2)cc1C#N [Compound 111, (R)—N-(4-(2-(3-cyano-4-isopropoxyphenyl)thiazol-5-yl)-2,3-dihydro-1H-inden-1-yl)methanesulfonamide] | 0.05 to 0.5 nM
CCS(=O)(=O)N[C@@H]1CCc2c(-c3cnc(-c4ccc(OC(C)C)c(C#N)c4)s3)cccc21 [Compound 113] | 0.05 to 0.5 nM
COCCS(=O)(=O)N[C@@H]1CCc2c(-c3cnc(-c4ccc(OC(C)C)c(C#N)c4)s3)cccc21 [Compound 116] | 0.5 to 5 nM
